Test results: US6340689B1 (priority 1999, dated 2002)
Converted amounts (≈) assume the structure as drawn.

Tests used:
[1] = tested on: Erythromycin-susceptible L. pneumophila; type: cell-based, Legionella pneumophila
[2] = tested on: L. pneumophila serogroup 1; experiment: microbe, parasite or virus in culture; type: cell-based, Legionella pneumophila; settings: for MIC 90%: L. pneumophila serogroup 1 (n = 85)
[3] = tested on: L. pneumophila serogroup 8, 9; experiment: microbe, parasite or virus in culture; type: cell-based; settings: Legionella pneumophila
[4] = tested on: L. pneumophila serogroup 3; experiment: microbe, parasite or virus in culture; type: cell-based; settings: Legionella pneumophila
L. dumoffii = experiment: organism not typed; type: cell-based
[5] = tested on: L. dumoffii and L. longbeachae; experiment: organism not typed; type: cell-based
[6] = tested on: L. pneumophila serogroup 7; experiment: microbe, parasite or virus in culture; type: cell-based; settings: Legionella pneumophila
[7] = tested on: L. pneumophila serogroup 6; experiment: microbe, parasite or virus in culture; type: cell-based; settings: Legionella pneumophila
[8] = tested on: isolates of Legionella pneumophila and other Legionella spp.; experiment: microbe, parasite or virus in culture; type: cell-based
L. longbeacheae = experiment: organism not typed; type: cell-based
[9] = tested on: L. pneumophila serogroup 5; experiment: microbe, parasite or virus in culture; type: cell-based; settings: Legionella pneumophila
[10] = tested on: L. pneumophila serogroup 4; experiment: microbe, parasite or virus in culture; type: cell-based; settings: Legionella pneumophila
[11] = tested on: L. pneumophila serogroup 2; experiment: microbe, parasite or virus in culture; type: cell-based; settings: Legionella pneumophila
L. micadadei = experiment: organism not typed; type: cell-based, L. micdadei
[12] = tested on: Erythromycin-susceptible Legionella spp. other than L. pneumophila; type: cell-based
Other Legionella spp. = experiment: microbe, parasite or virus in culture; type: cell-based
[13] = tested on: L. pneumophila serogroups 1-9; type: cell-based, Legionella pneumophila

**Q.** How did the “Mean PAE” value ([1]; Erythromycin-susceptible L. pneumophila (n = 15), 4 × MIC, mean ± SD) turn out when `CO/N=C1\CN(c2nc3c(cc2F)c(=O)c(C(=O)O)cn3C2CC2)CC1CN` (racemic) [Gemifloxacin, (R,S)-7-(3-aminomethyl-4-methoxyiminopyrrolidin-1-yl)-1-cyclopropyl-6-fluoro-4-oxo-1,4-dihydro-1,8-naphthyridine-3-carboxylic acid] was run?
**A.** 3.49 ± 3 h

**Q.** What about the “mean PAE longer than that of trovafloxacin, levofloxacin and clarithromycin” value ([1]; erythromycin-susceptible L. pneumophila) of the same compound?
**A.** ≥ 1 h

**Q.** And the “MIC 90%” value [2]?
**A.** ≦0.004 mg/L

**Q.** What about the “MIC 90%” value ([2]; listed as gemifloxacin) of the same compound?
**A.** 0.016 µg/mL (≈ 0.0411 µM)

**Q.** What about the MIC50 ([2]; Legionella pneumophila) of the same compound?
**A.** 0.016 µg/mL (≈ 0.0411 µM)

**Q.** And the MIC ([2]; Legionella pneumophila, 48 h, read-out: MIC Range)?
**A.** 0.008 to 0.06 µg/mL (≈ 0.0205 to 0.154 µM)

**Q.** And the MIC50 [3]?
**A.** 0.016 µg/mL (≈ 0.0411 µM)

**Q.** What about the MIC90 [3] of the same compound?
**A.** 0.016 µg/mL (≈ 0.0411 µM)

**Q.** What about the MIC ([3]; 48 h, read-out: MIC Range) of the same compound?
**A.** 0.016 µg/mL (≈ 0.0411 µM)

**Q.** And the MIC50 [4]?
**A.** 0.016 µg/mL (≈ 0.0411 µM)

**Q.** What about the MIC90 [4] of the same compound?
**A.** 0.016 µg/mL (≈ 0.0411 µM)

**Q.** What about the MIC ([4]; 48 h, read-out: MIC Range) of the same compound?
**A.** 0.008 to 0.016 µg/mL (≈ 0.0205 to 0.0411 µM)

**Q.** And the MIC50 (L. dumoffii)?
**A.** 0.06 µg/mL (≈ 0.154 µM)

**Q.** What about the MIC90 (L. dumoffii) of the same compound?
**A.** 0.06 µg/mL (≈ 0.154 µM)

**Q.** What about the MIC (L. dumoffii; 48 h, read-out: MIC Range) of the same compound?
**A.** 0.06 µg/mL (≈ 0.154 µM)

**Q.** What about the MIC90 [5] of the same compound?
**A.** 0.06 µg/mL (≈ 0.154 µM)

**Q.** And the MIC50 [6]?
**A.** 0.008 µg/mL (≈ 0.0205 µM)

**Q.** What about the MIC90 [6] of the same compound?
**A.** 0.016 µg/mL (≈ 0.0411 µM)

**Q.** What about the MIC ([6]; 48 h, read-out: MIC Range) of the same compound?
**A.** 0.008 to 0.016 µg/mL (≈ 0.0205 to 0.0411 µM)

**Q.** And the MIC50 [7]?
**A.** 0.016 µg/mL (≈ 0.0411 µM)

**Q.** And the MIC90 [7]?
**A.** 0.03 µg/mL (≈ 0.077 µM)

**Q.** And the MIC ([7]; 48 h, read-out: MIC Range)?
**A.** 0.008 to 0.03 µg/mL (≈ 0.0205 to 0.077 µM)

**Q.** And the MIC90 [8]?
**A.** 0.016 µg/mL (≈ 0.0411 µM)

**Q.** What about the MIC50 (L. longbeacheae) of the same compound?
**A.** 0.06 µg/mL (≈ 0.154 µM)

**Q.** What about the MIC90 (L. longbeacheae) of the same compound?
**A.** 0.06 µg/mL (≈ 0.154 µM)

**Q.** And the MIC (L. longbeacheae; 48 h, read-out: MIC Range)?
**A.** 0.016 to 0.06 µg/mL (≈ 0.0411 to 0.154 µM)

**Q.** What about the MIC50 [9] of the same compound?
**A.** 0.03 µg/mL (≈ 0.077 µM)

**Q.** And the MIC90 [9]?
**A.** 0.03 µg/mL (≈ 0.077 µM)

**Q.** What about the MIC ([9]; 48 h, read-out: MIC Range) of the same compound?
**A.** 0.03 to 0.06 µg/mL (≈ 0.077 to 0.154 µM)

**Q.** And the MIC50 [10]?
**A.** 0.016 µg/mL (≈ 0.0411 µM)

**Q.** What about the MIC90 [10] of the same compound?
**A.** 0.03 µg/mL (≈ 0.077 µM)

**Q.** What about the MIC ([10]; 48 h, read-out: MIC Range) of the same compound?
**A.** 0.008 to 0.03 µg/mL (≈ 0.0205 to 0.077 µM)

**Q.** What about the MIC50 [11] of the same compound?
**A.** 0.008 µg/mL (≈ 0.0205 µM)

**Q.** What about the MIC90 [11] of the same compound?
**A.** 0.016 µg/mL (≈ 0.0411 µM)

**Q.** What about the MIC ([11]; 48 h, read-out: MIC Range) of the same compound?
**A.** 0.008 to 0.016 µg/mL (≈ 0.0205 to 0.0411 µM)

**Q.** What about the MIC50 (L. micadadei) of the same compound?
**A.** 0.016 µg/mL (≈ 0.0411 µM)

**Q.** What about the MIC90 (L. micadadei) of the same compound?
**A.** 0.03 µg/mL (≈ 0.077 µM)

**Q.** What about the “MICs fold more active than erythromycin” value (L. micadadei) of the same compound?
**A.** 5 fold

**Q.** What about the MIC (L. micadadei; 48 h, read-out: MIC Range) of the same compound?
**A.** 0.008 to 0.03 µg/mL (≈ 0.0205 to 0.077 µM)

**Q.** What about the “Mean PAE” value ([12]; Erythromycin-susceptible Legionella spp. (n = 13), 4 × MIC, mean ± SD) of the same compound?
**A.** 2.27 ± 2 h

**Q.** And the “PAE (mean PAE)” value ([12]; erythromycin-susceptible Legionella spp. other than L. pneumophila, four times the MIC)?
**A.** 2.27 h

**Q.** What about the “mean PAE longer than that of trovafloxacin, moxifloxacin and clarithromycin” value ([12]; erythromycin-susceptible Legionella spp. other than pneumophila) of the same compound?
**A.** ≥ 1 h

**Q.** And the MIC50 (Other Legionella spp.)?
**A.** 0.03 µg/mL (≈ 0.077 µM)

**Q.** And the MIC90 (Other Legionella spp.)?
**A.** 0.06 µg/mL (≈ 0.154 µM)

**Q.** And the MIC (Other Legionella spp.; 48 h, read-out: MIC Range)?
**A.** 0.016 to 0.06 µg/mL (≈ 0.0411 to 0.154 µM)

**Q.** And the MIC range ([13]; L. pneumophila serogroups 1-9, text)?
**A.** 0.008 to 0.06 µg/mL

**Q.** And the “fold more active than erythromycin” value ([13]; against L. pneumophila strains tested)?
**A.** 5-6 fold
